Assay results as given in patent publication US12290596B2, “Compositions and methods for the treatment of opioid overdose” (priority 2021, dated 2025).

Experiment: Two-period crossover pharmacokinetics of nalmefene 3 mg IN vs 1.0 mg IM (Example 12)
Details: human, plasma; for concentration at 0.5 h: 0.500 h
[1] = intramuscular, 1 mg, Mean plasma concentration, Treatment B 1.0 mg IM
[2] = intramuscular, 1 mg, Median plasma concentration, Treatment B 1.0 mg IM
[3] = other: intranasal, 3 mg, Mean plasma concentration, Treatment A 3.0 mg IN
[4] = other: intranasal, 3 mg, Median plasma concentration, Treatment A 3.0 mg IN

## C=C1CC[C@@]2(O)[C@H]3Cc4ccc(O)c5c4[C@@]2(CCN3CC2CC2)[C@H]1O5 [Nalmefene, 17-cyclopropylmethyl-4,5α-epoxy-6-methylenemorphinan-3,14-diol]
[1]
  concentration at 0 h: 0.00352 ng/mL
  concentration at 0.5 h: 1.11 ng/mL
  concentration at 2 h: 0.972 ng/mL
  concentration at 3 h: 0.896 ng/mL
  concentration at 4 h: 0.824 ng/mL
  concentration at 6 h: 0.688 ng/mL
  concentration at 8 h: 0.67 ng/mL
  concentration at 36 h: 0.0968 ng/mL
  concentration at 12 h: 0.538 ng/mL
  concentration at 18 h: 0.36 ng/mL
  concentration at 24 h: 0.223 ng/mL
  concentration at 48 h: 0.0491 ng/mL
[2]
  concentration at 0 h: 0 ng/mL
  concentration at 0.5 h: 0.945 ng/mL
  concentration at 1 h: 0.829 ng/mL
  concentration at 2 h: 0.858 ng/mL
  concentration at 3 h: 0.818 ng/mL
  concentration at 4 h: 0.77 ng/mL
  concentration at 6 h: 0.673 ng/mL
  concentration at 8 h: 0.629 ng/mL
  concentration at 36 h: 0.0915 ng/mL
  concentration at 12 h: 0.516 ng/mL
  concentration at 18 h: 0.341 ng/mL
  concentration at 24 h: 0.203 ng/mL
  concentration at 48 h: 0.0436 ng/mL
other: intranasal (nasal spray), 3 mg, Plasma half-life, 3 mg IN
  half-life: ~11 h
other: intranasal, 3 mg, AUC0-5 min, GeoMean, Treatment A 3.0 mg IN (Test)
  AUC(0-t): 0.06 ng·h/mL
other: intranasal, 3 mg, AUC0-5 min, Treatment A: 3.0 mg nalmefene hydrochloride IN, Geo. Mean, n 66
  AUC(0-t): 0.0599 ng·h/mL
other: intranasal, 3 mg, AUC0-5 min, Treatment A: 3.0 mg nalmefene hydrochloride IN, Median, n 66
  AUC(0-t): 0.0546 ng·h/mL
other: intranasal, 3 mg, AUC0-10 min, GeoMean, Treatment A 3.0 mg IN (Test)
  AUC(0-t): 0.514 ng·h/mL
other: intranasal, 3 mg, AUC0-10 min, Treatment A: 3.0 mg nalmefene hydrochloride IN, Geo. Mean, n 66
  AUC(0-t): 0.523 ng·h/mL
other: intranasal, 3 mg, AUC0-10 min, Treatment A: 3.0 mg nalmefene hydrochloride IN, Mean, n 66
  AUC(0-t): 0.787 ng·h/mL
other: intranasal, 3 mg, AUC0-10 min, Treatment A: 3.0 mg nalmefene hydrochloride IN, Median, n 66
  AUC(0-t): 0.537 ng·h/mL
other: intranasal, 3 mg, AUC0-15 min, GeoMean, Treatment A 3.0 mg IN (Test)
  AUC(0-t): 1.19 ng·h/mL
other: intranasal, 3 mg, AUC0-15 min, Treatment A: 3.0 mg nalmefene hydrochloride IN, Geo. Mean, n 66
  AUC(0-t): 1.2 ng·h/mL
other: intranasal, 3 mg, AUC0-15 min, Treatment A: 3.0 mg nalmefene hydrochloride IN, Mean, n 66
  AUC(0-t): 1.6 ng·h/mL
other: intranasal, 3 mg, AUC0-15 min, Treatment A: 3.0 mg nalmefene hydrochloride IN, Median, n 66
  AUC(0-t): 1.19 ng·h/mL
other: intranasal, 3 mg, AUC0-20 min, GeoMean, Treatment A 3.0 mg IN (Test)
  AUC(0-t): 1.87 ng·h/mL
other: intranasal, 3 mg, AUC0-20 min, Treatment A: 3.0 mg nalmefene hydrochloride IN, Geo. Mean, n 66
  AUC(0-t): 1.89 ng·h/mL
other: intranasal, 3 mg, AUC0-20 min, Treatment A: 3.0 mg nalmefene hydrochloride IN, Mean, n 66
  AUC(0-t): 2.34 ng·h/mL
other: intranasal, 3 mg, AUC0-20 min, Treatment A: 3.0 mg nalmefene hydrochloride IN, Median, n 66
  AUC(0-t): 1.85 ng·h/mL
other: intranasal, 3 mg, AUC0-30 min, GeoMean, Treatment A 3.0 mg IN (Test)
  AUC(0-t): 3.04 ng·h/mL
other: intranasal, 3 mg, AUC0-30 min, Treatment A: 3.0 mg nalmefene hydrochloride IN, Geo. Mean, n 66
  AUC(0-t): 3.07 ng·h/mL
other: intranasal, 3 mg, AUC0-30 min, Treatment A: 3.0 mg nalmefene hydrochloride IN, Mean, n 66
  AUC(0-t): 3.55 ng·h/mL
other: intranasal, 3 mg, AUC0-30 min, Treatment A: 3.0 mg nalmefene hydrochloride IN, Median, n 66
  AUC(0-t): 3.04 ng·h/mL
other: intranasal, 3 mg, AUC0-[…], Treatment A: 3.0 mg nalmefene hydrochloride IN, Mean, n 66
  AUC(0-t): 0.0193 ng·h/mL
other: intranasal, 3 mg, AUCLast, GeoMean, Treatment A 3.0 mg IN (Test)
  AUC(0-t): 38.9 ng·h/mL
other: intranasal, 3 mg, AUCinf, GeoMean, Treatment A 3.0 mg IN (Test)
  AUC(0-inf): 40.3 ng·h/mL
other: intranasal, 3 mg, Cmax, GeoMean, Treatment A 3.0 mg IN (Test)
  Cmax: 10.3 ng/mL
[3]
  concentration at 0 h: 0.00146 ng/mL
  concentration at 0.5 h: 6.25 ng/mL
  concentration at 1 h: 4.64 ng/mL
  concentration at 2 h: 4.03 ng/mL
  concentration at 3 h: 3.17 ng/mL
  concentration at 4 h: 2.52 ng/mL
  concentration at 6 h: 1.69 ng/mL
  concentration at 8 h: 1.23 ng/mL
  concentration at 36 h: 0.171 ng/mL
  concentration at 12 h: 0.87 ng/mL
  concentration at 18 h: 0.529 ng/mL
  concentration at 24 h: 0.366 ng/mL
  concentration at 48 h: 0.0875 ng/mL
[4]
  concentration at 0 h: 0 ng/mL
  concentration at 0.5 h: 5.86 ng/mL
  concentration at 1 h: 4.68 ng/mL
  concentration at 2 h: 3.99 ng/mL
  concentration at 3 h: 3.13 ng/mL
  concentration at 4 h: 2.49 ng/mL
  concentration at 6 h: 1.65 ng/mL
  concentration at 8 h: 1.18 ng/mL
  concentration at 36 h: 0.165 ng/mL
  concentration at 12 h: 0.832 ng/mL
  concentration at 18 h: 0.518 ng/mL
  concentration at 24 h: 0.341 ng/mL
  concentration at 48 h: 0.0843 ng/mL
